The results in this text go back to US20240150377A1, “MODULATORS OF CYSTIC FIBROSIS TRANSMEMBRANE CONDUCTANCE REGULATOR” (VERTEX PHARMACEUTICALS INCORPORATED, priority 2020, published 2024).

The assay has as its target T1, CFTR (Homo sapiens, UniProt P13569, DEL508-508).
T1 construct: endogenous in cells; host or cells: primary human bronchial epithelial cells from CF subjects (F508del/MF-HBE), differentiated at air-liquid interface
The assay can be described thus: HBE assay: Ussing chamber assay of CFTR-mediated short-circuit currents. The assay is classed as cell-based. The note with it: for activation at 10 µM: read-out: HBE Activity at 10 μM (%); for EC50: read-out: HBE EC50; for Emax: read-out: HBE Max Activity (%). The method, boiled down:
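CFTR-mediated Isc (μA/cm²) equals the peak response to apical 20 μM forskolin minus the residual after a 20 μM each BPO/GlyH-101/CFTR inhibitor 172 cocktail, recorded in Ussing chambers at Vhold 0 mV, 37 °C, pH 7.4, with 30 μM apical amiloride. Cells were F508del/MF HBE cultures preincubated 18-24 h with corrector (concentration range or 10 μM) plus 1 μM ivacaftor in 20% human serum.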

Usually EC50 stands for the concentration that produces a half-maximal response.

Where two headings read alike, the source gives them in different places.

T1 sequence (P13569 with tags, fused parts or gaps DEL508-508): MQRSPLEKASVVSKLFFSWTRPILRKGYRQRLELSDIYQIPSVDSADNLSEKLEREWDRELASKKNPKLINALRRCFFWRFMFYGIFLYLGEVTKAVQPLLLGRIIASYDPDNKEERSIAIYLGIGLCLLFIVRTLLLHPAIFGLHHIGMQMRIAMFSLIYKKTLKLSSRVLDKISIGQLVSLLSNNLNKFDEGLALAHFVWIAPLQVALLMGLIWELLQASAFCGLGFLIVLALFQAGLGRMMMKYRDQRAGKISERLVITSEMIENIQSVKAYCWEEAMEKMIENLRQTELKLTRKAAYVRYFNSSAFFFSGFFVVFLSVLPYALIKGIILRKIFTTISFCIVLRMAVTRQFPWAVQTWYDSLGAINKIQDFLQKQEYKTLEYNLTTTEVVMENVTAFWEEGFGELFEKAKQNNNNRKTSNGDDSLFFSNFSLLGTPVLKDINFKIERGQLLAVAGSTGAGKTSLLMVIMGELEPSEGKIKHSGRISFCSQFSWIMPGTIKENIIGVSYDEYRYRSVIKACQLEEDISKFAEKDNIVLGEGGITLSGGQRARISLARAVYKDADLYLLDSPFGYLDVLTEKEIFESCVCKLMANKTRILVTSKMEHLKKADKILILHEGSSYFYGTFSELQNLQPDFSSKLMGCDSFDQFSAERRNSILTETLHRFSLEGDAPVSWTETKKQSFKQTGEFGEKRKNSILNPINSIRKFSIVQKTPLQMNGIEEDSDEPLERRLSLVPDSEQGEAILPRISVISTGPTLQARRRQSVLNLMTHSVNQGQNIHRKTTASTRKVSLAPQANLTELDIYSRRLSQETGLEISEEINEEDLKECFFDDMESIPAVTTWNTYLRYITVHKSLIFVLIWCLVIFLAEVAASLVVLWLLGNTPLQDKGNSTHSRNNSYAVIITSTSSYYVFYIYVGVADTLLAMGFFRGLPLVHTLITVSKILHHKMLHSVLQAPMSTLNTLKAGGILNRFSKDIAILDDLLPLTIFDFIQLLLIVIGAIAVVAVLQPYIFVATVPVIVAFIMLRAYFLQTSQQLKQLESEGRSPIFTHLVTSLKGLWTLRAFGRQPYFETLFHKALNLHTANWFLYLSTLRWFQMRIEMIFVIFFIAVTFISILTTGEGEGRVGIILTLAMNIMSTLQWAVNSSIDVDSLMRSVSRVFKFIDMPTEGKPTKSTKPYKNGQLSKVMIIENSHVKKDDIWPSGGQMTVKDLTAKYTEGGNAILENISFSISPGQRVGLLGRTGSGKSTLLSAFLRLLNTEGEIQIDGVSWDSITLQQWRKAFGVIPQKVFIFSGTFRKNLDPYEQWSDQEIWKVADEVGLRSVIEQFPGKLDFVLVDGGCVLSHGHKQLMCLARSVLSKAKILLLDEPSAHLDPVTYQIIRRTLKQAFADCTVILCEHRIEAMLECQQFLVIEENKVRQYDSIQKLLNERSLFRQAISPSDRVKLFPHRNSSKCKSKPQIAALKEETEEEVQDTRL

Turning to `Cc1cccc(C)c1-c1cc2nc(n1)NS(=O)(=O)c1cccc(c1)C(=O)N(Cc1nc(C(C)(C)C)cs1)[C@H](CC(C)(C)C)CO2` [Compound 702], where the note is “Table 12”, the activation at 10 µM is > 600%. With `Cc1cccc(C)c1-c1cc2nc(n1)NS(=O)(=O)c1cccc(c1)C(=O)N(Cc1coc(C(C)C)n1)[C@H](CC(C)(C)C)CO2` [Compound 703], for the setting “Table 12”, the EC50 is < 1000 nM and the Emax was > 60%. Taken in the same sequence, the figures for `Cc1cccc(C)c1-c1cc2nc(n1)NS(=O)(=O)c1cccc(c1)C(=O)N(Cc1nc(C(C)C)cs1)[C@H](CC(C)(C)C)CO2` [Compound 704] were < 1000 nM and > 60%.

For `Cc1cccc(C)c1-c1cc2nc(n1)NS(=O)(=O)c1cccc(c1)C(=O)N(Cc1ncc(C(C)C)s1)[C@H](CC(C)(C)C)CO2` [Compound 705], under “Table 12”, the 50% effective concentration (EC50) is < 1000 nM and the Emax was > 60%. The corresponding values for `Cc1cccc(C)c1-c1cc2nc(n1)NS(=O)(=O)c1cccc(c1)C(=O)N(Cc1ccc(C3CC(C)(C)CCO3)cn1)[C@H](CC(C)(C)C)CO2` (stereo partly drawn) [Compound 706] are < 1000 nM and > 60%.

Regarding `Cc1cccc(C)c1-c1cc2nc(n1)NS(=O)(=O)c1cccc(c1)C(=O)N(Cc1ccc(C3CCCCO3)cn1)[C@H](CC(C)(C)C)CO2` (stereo partly drawn) [Compound 707], where the note is “Table 12”, the EC50 was < 1000 nM and the Emax was > 60%. Turning to `Cc1cccc(C)c1-c1cc2nc(n1)NS(=O)(=O)c1cccc(c1)C(=O)N(Cc1ncc(N3CCC4(CC3)CC4)cn1)[C@H](CC(C)(C)C)CO2` [Compound 708], where the note is “Table 11”, the EC50 fell in the range of 1000 to 3000 nM and the Emax is > 60%. For the compound `Cc1cccc(C)c1-c1cc2nc(n1)NS(=O)(=O)c1cccc(c1)C(=O)N(Cc1cccc(N3[C@H](C)CC[C@@H]3C)n1)[C@H](CC(C)(C)C)CO2` [Compound 709], where the note is “Table 11”, the EC50 is < 1000 nM and the Emax lay in the range of 30 to 60%. Taken in the same sequence, the figures for `Cc1cccc(C)c1-c1cc2nc(n1)NS(=O)(=O)c1cccc(c1)C(=O)N(Cc1cccc(N3CCC[C@@H]3C)n1)[C@H](CC(C)(C)C)CO2` [Compound 710] were < 1000 nM and > 60%.

`CCN(CC)c1cccc(CN2C(=O)c3cccc(c3)S(=O)(=O)Nc3nc(cc(-c4c(C)cccc4C)n3)OC[C@H]2CC(C)(C)C)n1` [Compound 711]: for the setting “Table 11”, the EC50 is 1000 to 3000 nM and the Emax was > 60%. The corresponding values for `Cc1cccc(C)c1-c1cc2nc(n1)NS(=O)(=O)c1cccc(c1)C(=O)N(CC1CN(CC(C)(C)C)CCO1)[C@H](CC(C)(C)C)CO2` (stereo partly drawn) [Compound 712] are < 1000 nM and > 60%. With `Cc1cccc(C)c1-c1cc2nc(n1)NS(=O)(=O)c1cccc(c1)C(=O)N(CC1CN(C(=O)C(C)(C)C)CCO1)[C@H](CC(C)(C)C)CO2` (stereo partly drawn) [Compound 714], under “Table 11”, the EC50 is < 1000 nM and the Emax is > 60%. Turning to `CCN(C)c1cccc(CN2C(=O)c3cccc(c3)S(=O)(=O)Nc3nc(cc(-c4c(C)cccc4C)n3)OC[C@H]2CC(C)(C)C)n1` [Compound 715], where the note is “Table 11”, the concentration giving a half-maximal response (EC50) was 1000 to 3000 nM and the Emax is > 60%. Regarding `Cc1cccc(C)c1-c1cc2nc(n1)NS(=O)(=O)c1cccc(c1)C(=O)N(Cc1ncc(N3C[C@H](C)C[C@@H](C)C3)cn1)[C@H](CC(C)(C)C)CO2` [Compound 716], for the setting “Table 11”, the concentration giving a half-maximal response (EC50) was 3000 to 30000 nM and the Emax was > 60%. The corresponding values for `Cc1cccc(C)c1-c1cc2nc(n1)NS(=O)(=O)c1cccc(c1)C(=O)N(Cc1ncc(N3CC4CC4C3)cn1)[C@H](CC(C)(C)C)CO2` (stereo partly drawn) [Compound 717] are 1000 to 3000 nM and > 60%. Taken in the same sequence, the figures for `COC1CCN(c2cnc(CN3C(=O)c4cccc(c4)S(=O)(=O)Nc4nc(cc(-c5c(C)cccc5C)n4)OC[C@H]3CC(C)(C)C)nc2)CC1` [Compound 718] were < 1000 nM and > 60%.

`Cc1cccc(C)c1-c1cc2nc(n1)NS(=O)(=O)c1cccc(c1)C(=O)N(Cc1ncc(N3CCC(C)CC3)cn1)[C@H](CC(C)(C)C)CO2` [Compound 719]: where the note is “Table 11”, the EC50 was < 1000 nM and the Emax was > 60%. Taken in the same sequence, the figures for `CCOc1cnc(CN2C(=O)c3cccc(c3)S(=O)(=O)Nc3nc(cc(-c4c(C)cccc4C)n3)OC[C@H]2CC(C)(C)C)nc1` [Compound 720] were < 1000 nM and > 60%. For the compound `Cc1cccc(C)c1-c1cc2nc(n1)NS(=O)(=O)c1cccc(c1)C(=O)N(Cc1cccc(N3CCC(C)(O)CC3)n1)[C@H](CC(C)(C)C)CO2` [Compound 721], for the setting “Table 11”, the EC50 was < 1000 nM and the Emax was > 60%. Taken in the same sequence, the figures for `COC1CCN(c2cccc(CN3C(=O)c4cccc(c4)S(=O)(=O)Nc4nc(cc(-c5c(C)cccc5C)n4)OC[C@H]3CC(C)(C)C)n2)CC1` [Compound 722] were < 1000 nM and > 60%. The corresponding values for `Cc1cccc(C)c1-c1cc2nc(n1)NS(=O)(=O)c1cccc(c1)C(=O)N(CC1CN(C(=O)OC(C)(C)C)CCO1)[C@H](CC(C)(C)C)CO2` (stereo partly drawn) [Compound 723] are < 1000 nM and > 60%. The corresponding values for `Cc1cccc(C)c1-c1cc2nc(n1)NS(=O)(=O)c1cccc(c1)C(=O)N(Cc1ncccc1NCC(C)(C)C)[C@H](CC(C)(C)C)CO2` [Compound 724] are < 1000 nM and > 60%.

For `Cc1cccc(C)c1-c1cc2nc(n1)NS(=O)(=O)c1cccc(c1)C(=O)N(Cc1ncccc1N(C)CC(C)(C)C)[C@H](CC(C)(C)C)CO2` [Compound 725], for the setting “Table 11”, the EC50 is < 1000 nM and the Emax was > 60%.

For the compound `Cc1cccc(C)c1-c1cc2nc(n1)NS(=O)(=O)c1cccc(c1)C(=O)N(Cc1cccc(C3CCC(C)(C)CC3)n1)[C@H](CC(C)(C)C)CO2` [Compound 727], for the setting “Table 11”, the EC50 was < 1000 nM and the Emax was > 60%. Taken in the same sequence, the figures for `Cc1cccc(C)c1-c1cc2nc(n1)NS(=O)(=O)c1cccc(c1)C(=O)N(Cc1cccc(C3CCOCC3)n1)[C@H](CC(C)(C)C)CO2` [Compound 728] were < 1000 nM and > 60%. Turning to `Cc1cccc(C)c1-c1cc2nc(n1)NS(=O)(=O)c1cccc(c1)C(=O)N(Cc1cccc(C(C)C)n1)[C@H](CC(C)(C)C)CO2` [Compound 729], under “Table 11”, the EC50 was < 1000 nM and the Emax was > 60%. Taken in the same sequence, the figures for `CCc1cccc(CN2C(=O)c3cccc(c3)S(=O)(=O)Nc3nc(cc(-c4c(C)cccc4C)n3)OC[C@H]2CC(C)(C)C)n1` [Compound 730] were < 1000 nM and > 60%. The corresponding values for `Cc1cccc(C)c1-c1cc2nc(n1)NS(=O)(=O)c1cccc(c1)C(=O)N(Cc1cccc(C(C)(C)C)n1)[C@H](CC(C)(C)C)CO2` [Compound 731] are < 1000 nM and > 60%. In the case of `Cc1cccc(C)c1-c1cc2nc(n1)NS(=O)(=O)c1cccc(c1)C(=O)N(Cc1cccc(-n3cc(C(C)(C)C)cn3)n1)[C@H](CC(C)(C)C)CO2` [Compound 732], under “Table 11”, the EC50 was < 1000 nM and the Emax was > 60%.

Take `Cc1cccc(C)c1-c1cc2nc(n1)NS(=O)(=O)c1cccc(c1)C(=O)N(Cc1cccc(C3=CCOCC3)n1)[C@H](CC(C)(C)C)CO2` [Compound 733]: for the setting “Table 11”, the activation at 10 µM was > 60%, the EC50 is < 1000 nM and the Emax is > 60%. In the case of `Cc1cccc(C)c1-c1cc2nc(n1)NS(=O)(=O)c1cccc(c1)C(=O)N(Cc1cccc(C3=CCC(C)(C)CC3)n1)[C@H](CC(C)(C)C)CO2` [Compound 734], under “Table 11”, the activation at 10 µM is > 60%. For `C=C(C)c1cccc(CN2C(=O)c3cccc(c3)S(=O)(=O)Nc3nc(cc(-c4c(C)cccc4C)n3)OC[C@H]2CC(C)(C)C)n1` [Compound 735], under “Table 11”, the activation at 10 µM is > 60%, the EC50 was < 1000 nM and the Emax was > 60%.

On to `Cc1cccc(C)c1-c1cc2nc(n1)NS(=O)(=O)c1cccc(c1)C(=O)N(Cc1cccc(NC(C)C)n1)[C@H](CC(C)(C)C)CO2` [Compound 736], for which, under “Table 11”, the EC50 is < 1000 nM and the Emax was > 60%. The corresponding values for `Cc1cccc(C)c1-c1cc2nc(n1)NS(=O)(=O)c1cccc(c1)C(=O)N(Cc1cccc(N(C)C(C)C)n1)[C@H](CC(C)(C)C)CO2` [Compound 737] are < 1000 nM and > 60%. Taken in the same sequence, the figures for `CCNc1cccc(CN2C(=O)c3cccc(c3)S(=O)(=O)Nc3nc(cc(-c4c(C)cccc4C)n3)OC[C@H]2CC(C)(C)C)n1` [Compound 738] were < 1000 nM and > 60%. Taken in the same sequence, the figures for `Cc1cccc(C)c1-c1cc2nc(n1)NS(=O)(=O)c1cccc(c1)C(=O)N(Cc1cccc(NC(C)(C)C)n1)[C@H](CC(C)(C)C)CO2` [Compound 739] were < 1000 nM and > 60%. As for `Cc1cccc(C)c1-c1cc2nc(n1)NS(=O)(=O)c1cccc(c1)C(=O)N(Cc1ncccc1OC(C)C)[C@H](CC(C)(C)C)CO2` [Compound 741], where the note is “Table 11”, the EC50 was < 1000 nM and the Emax was > 60%. Taken in the same sequence, the figures for `CCOc1cccnc1CN1C(=O)c2cccc(c2)S(=O)(=O)Nc2nc(cc(-c3c(C)cccc3C)n2)OC[C@H]1CC(C)(C)C` [Compound 742] were < 1000 nM and > 60%.

As for `Cc1cccc(C)c1-c1cc2nc(n1)NS(=O)(=O)c1cccc(c1)C(=O)N(Cc1cc3ccccn3n1)[C@H](CC(C)(C)C)CO2` [Compound 743], the activation at 10 µM (Table 11) was < 30%. Consider `Cc1cccc(C)c1-c1cc2nc(n1)NS(=O)(=O)c1cccc(c1)C(=O)N(Cc1ccc(OC(C)C)cn1)[C@H](CC(C)(C)C)CO2` [Compound 744], for which, for the setting “Table 11”, the EC50 was < 1000 nM and the Emax is > 60%. Taken in the same sequence, the figures for `CCOc1ccc(CN2C(=O)c3cccc(c3)S(=O)(=O)Nc3nc(cc(-c4c(C)cccc4C)n3)OC[C@H]2CC(C)(C)C)nc1` [Compound 745] were < 1000 nM and > 60%.
